Experimental data taken from US9457029B2, “Treatment of genotyped diabetic patients with DPP-IV inhibitors such as linagliptin” (Boehringer Ingelheim International GmbH, priority 2009, dated 2016).
Each block holds one molecule with its values, some of them ahead of it.

Legend:
the diabetic = conditions: metformin on its own; cited from earlier work
[1] = tested on: patients with type 2 diabetes mellitus and insufficient glycemic control; format: in vivo, human
Procedure: A multi-center, 24-week, randomized, double-blind, placebo-controlled, parallel group study investigates the efficacy and safety of initial combination therapy with the DPP-4 inhibitor linagliptin (LI) and pioglitazone (PIO). […] Mean baseline characteristics (HbA1c 8.6%; fasting plasma glucose [FPG] 190 mg/dL; age 57.5 yrs; BMI 29.0 kg/m2) are similar between the groups. […] After 24 weeks of treatment, the adjusted mean change in HbA1c for the patients in the LI+ PIO group (full analysis set, last observation carried forward) is −1.06% (standard error (SE)±0.06). The difference in the adjusted mean HbA1c for the LI+ PIO group compared with PBO+PIO is −0.51% (p<0.0001; 95% confidence interval (CI), −0.71, −0.30). […] The proportion of patients that experienced at least one adverse event (AE) is similar for both LI+ PIO and PBO+PIO groups (136, 52.5% vs. 53.1%, respectively). Hypoglycemia is rare, occurring in 3 patients (1.2%) in the LI+ PIO group and none in the PBO+PIO group. All hypoglycemic events are of mild intensity.

[2] = tested on: inadequately controlled, metformin-treated type 2 diabetic patients; assay: 12-week randomized, double-blind study of BI 1356 add-on to metformin vs placebo or open label glimepiride; format: in vivo, human
Procedure: Efficacy and safety of BI 1356 (1, 5, or 10 mg qd), a potent and selective dipeptidyl peptidase-4 (DPP-4) inhibitor, was examined in inadequately controlled, metformin-treated (MET, ≧1 g daily) type 2 diabetic patients (T2DM; HbA1c at baseline 7.5-10.0%). Effects were compared to add-on of placebo (PBO) or of open label glimepiride (GLIM; 1 to 3 mg qd) in a 12-week randomized, double-blind study. Antidiabetic medication other than metformin was washed out for 6 weeks (34.7% of the patients).
The primary endpoint was change from baseline in HbA1c, adjusted for prior antidiabetic medication. 333 patients (mean baseline HbA1c 8.3%; fasting plasma glucose [FPG] 185 mg/dL) were randomized to BI 1356, PBO or open-label GLIM. […] Reductions in FPG from baseline to Week 12 with BI 1356 were statistically significant (1 mg, −19 mg/dL; 5 mg, −35 mg/dL; 10 mg, −30 mg/dL). […] For this dose, >80% DPP-4 inhibition at trough in >80% of the patients at week 12 was achieved.
In total, 106 patients (43.1%) experienced adverse events (AEs) with similar incidences across all treatments. Most frequently reported episodes were nasopharyngitis (7.5%), diarrhoea (3.3%), and nausea (3.0%). […] Ten patients (3.7%) experienced serious AEs but none of these events were considered drug-related.

[3] = tested on: Japanese patients with type 2 diabetes mellitus; conditions: VB 0.2 mg tid
[4] = 5 mg LI plus 30 mg PIO qd or 30 mg PIO plus placebo qd, 24 weeks

SMILES: CN(C)C(=N)N=C(N)N [metformin]
average improvement in the HbA1c value (the diabetic): 1.0-1.5%

hypoglycemia, number of patients ([1]; in vivo): none
SMILES: CCc1ccc(CCOc2ccc(CC3SC(=O)NC3=O)cc2)nc1 (stereo not drawn) [PBO+PIO, pioglitazone]
patients achieving a reduction in HbA1c of ≧0.5% [1, 4]: 50.8%
patients achieving a target HbA1c of <7% [1, 4]: 30.5%
proportion of patients that experienced at least one adverse event (AE) ([1]; in vivo): 53.1%

drug-related hypoglycaemia, number of patients ([2]; GLIM 1 to 3 mg qd add-on to metformin, 12 weeks): 3 patients
SMILES: CCC1=C(C)CN(C(=O)NCCc2ccc(S(=O)(=O)NC(=O)N[C@H]3CC[C@H](C)CC3)cc2)C1=O [GLIM, glimepiride, reference compound]
mean PBO corrected reduction in HbA1c ([2]; open label GLIM 1 to 3 mg qd add-on to metformin, Week 12): −0.90%

SMILES: OCC(CO)N[C@H]1C[C@](O)(CO)[C@@H](O)[C@H](O)[C@H]1O [VB, voglibose, reference compound]
proportion of patients whose HbA1c level lowered by ≧0.5% ([3]; 26 weeks): 37.7%
proportion of patients achieving HbA1c<7.0% ([3]; after 26 weeks): 22.2%
